Reference: ChEMBL document CHEMBL3046635, “Synthesis and Herbicidal Activity of New Pyrazole-4-carboxamide Derivatives” (J Pestic Sci, 2004)
Activity calls are given as the source filed them. Unless noted, no cut-off for these calls is given here.

Legend:
Rotala indica [1] = experiment: Pre-emergence herbicidal activity against Rotala indica assessed as bleaching of stem/leaf parts; type: functional, organism-based
Elatine triandra [2] = experiment: Pre-emergence herbicidal activity against Elatine triandra at 500 g a.i/ha measured after 14 days; type: functional, organism-based
Eleocharis acicularis [3] = experiment: Pre-emergence herbicidal activity against Eleocharis acicularis at 100 g a.i/ha measured after 14 days; type: functional, organism-based
Oryza sativa [4] = experiment: Phytotoxicity against Oryza sativa cv. Koshihikari (rice) at 100 g a.i/ha measured after 14 days; type: organism-based; conditions: in vivo, 336 h
Pontederia vaginalis [5] = experiment: Pre-emergence herbicidal activity against Monochoria vaginalis at 100 g a.i/ha measured after 14 days; type: functional, organism-based
Cyperus difformis [6] = experiment: Pre-emergence herbicidal activity against Cyperus difformis assessed as bleaching of stem/leaf parts; type: functional, organism-based
Ammannia multiflora [7] = experiment: Post-emergence herbicidal activity against Ammannia multiflora assessed as bleaching of stem/leaf parts; type: functional, organism-based; note: test concentration or dose not given here
Rotala indica [8] = experiment: Post-emergence herbicidal activity against Rotala indica assessed as bleaching of stem/leaf parts; type: functional, organism-based; note: test concentration or dose not given here
Rotala indica [9] = experiment: Pre-emergence herbicidal activity against Rotala indica at 100 g a.i/ha measured after 14 days; type: functional, organism-based
Echinochloa oryzicola [10] = experiment: Pre-emergence herbicidal activity against Echinochloa oryzicola assessed as bleaching of stem/leaf parts; type: functional, organism-based
Cyperus difformis [11] = experiment: Pre-emergence herbicidal activity against Cyperus difformis at 100 g a.i/ha measured after 14 days; type: functional, organism-based
Elatine triandra [12] = experiment: Post-emergence herbicidal activity against Elatine triandra assessed as bleaching of stem/leaf parts; type: functional, organism-based; note: test concentration or dose not given here
Lindernia procumbens [13] = experiment: Post-emergence herbicidal activity against Lindernia procumbens assessed as bleaching of stem/leaf parts; type: functional, organism-based; note: test concentration or dose not given here
Elatine triandra [14] = experiment: Pre-emergence herbicidal activity against Elatine triandra at 100 g a.i/ha measured after 14 days; type: functional, organism-based
Ammannia multiflora [15] = experiment: Pre-emergence herbicidal activity against Ammannia multiflora assessed as bleaching of stem/leaf parts; type: functional, organism-based
Pontederia vaginalis [16] = experiment: Pre-emergence herbicidal activity against Monochoria vaginalis assessed as bleaching of stem/leaf parts; type: functional, organism-based
Lindernia procumbens [17] = experiment: Pre-emergence herbicidal activity against Lindernia procumbens at 500 g a.i/ha measured after 14 days; type: functional, organism-based
Eleocharis acicularis [18] = experiment: Post-emergence herbicidal activity against Eleocharis acicularis assessed as bleaching of stem/leaf parts; type: functional, organism-based; note: test concentration or dose not given here
[19] = tested on: Schoenoplectiella juncoides; experiment: Pre-emergence herbicidal activity against Schoenoplectiella juncoides assessed as bleaching of stem/leaf parts; type: functional, organism-based
Echinochloa oryzicola [20] = experiment: Post-emergence herbicidal activity against Echinochloa oryzicola assessed as bleaching of stem/leaf parts; type: functional, organism-based; note: test concentration or dose not given here
[21] = tested on: Schoenoplectiella juncoides; experiment: Post-emergence herbicidal activity against Schoenoplectiella juncoides assessed as bleaching of stem/leaf parts; type: functional, organism-based; note: test concentration or dose not given here
Echinochloa oryzicola [22] = experiment: Pre-emergence herbicidal activity against Echinochloa oryzicola at 100 g a.i/ha measured after 14 days; type: functional, organism-based
Eleocharis acicularis [23] = experiment: Pre-emergence herbicidal activity against Eleocharis acicularis at 500 g a.i/ha measured after 14 days; type: functional, organism-based
Cyperus difformis [24] = experiment: Pre-emergence herbicidal activity against Cyperus difformis at 500 g a.i/ha measured after 14 days; type: functional, organism-based
Lindernia procumbens [25] = experiment: Pre-emergence herbicidal activity against Lindernia procumbens at 100 g a.i/ha measured after 14 days; type: functional, organism-based
Oryza sativa [26] = experiment: Phytotoxicity against Oryza sativa cv. Koshihikari (rice) at 500 g a.i/ha measured after 14 days; type: organism-based; conditions: in vivo, 336 h
Pontederia vaginalis [27] = experiment: Post-emergence herbicidal activity against Monochoria vaginalis assessed as bleaching of stem/leaf parts; type: functional, organism-based; note: test concentration or dose not given here
Elatine triandra [28] = experiment: Pre-emergence herbicidal activity against Elatine triandra assessed as bleaching of stem/leaf parts; type: functional, organism-based
Lindernia procumbens [29] = experiment: Pre-emergence herbicidal activity against Lindernia procumbens assessed as bleaching of stem/leaf parts; type: functional, organism-based
[30] = tested on: Schoenoplectiella juncoides; experiment: Pre-emergence herbicidal activity against Schoenoplectiella juncoides at 500 g a.i/ha measured after 14 days; type: functional, organism-based
Rotala indica [31] = experiment: Pre-emergence herbicidal activity against Rotala indica at 500 g a.i/ha measured after 14 days; type: functional, organism-based
Cyperus difformis [32] = experiment: Post-emergence herbicidal activity against Cyperus difformis assessed as bleaching of stem/leaf parts; type: functional, organism-based; note: test concentration or dose not given here
Ammannia multiflora [33] = experiment: Pre-emergence herbicidal activity against Ammannia multiflora at 500 g a.i/ha measured after 14 days; type: functional, organism-based
Pontederia vaginalis [34] = experiment: Pre-emergence herbicidal activity against Monochoria vaginalis at 500 g a.i/ha measured after 14 days; type: functional, organism-based
Ammannia multiflora [35] = experiment: Pre-emergence herbicidal activity against Ammannia multiflora at 100 g a.i/ha measured after 14 days; type: functional, organism-based
[36] = tested on: Schoenoplectiella juncoides; experiment: Pre-emergence herbicidal activity against Schoenoplectiella juncoides at 100 g a.i/ha measured after 14 days; type: functional, organism-based
Eleocharis acicularis [37] = experiment: Pre-emergence herbicidal activity against Eleocharis acicularis assessed as bleaching of stem/leaf parts; type: functional, organism-based
Echinochloa oryzicola [38] = experiment: Pre-emergence herbicidal activity against Echinochloa oryzicola at 500 g a.i/ha measured after 14 days; type: functional, organism-based

SMILES | Activity (Rotala indica [1]) | Activity (Elatine triandra [2]) | Activity (Eleocharis acicularis [3]) | Activity (Oryza sativa [4]) | Activity (Pontederia vaginalis [5]) | Activity (Cyperus difformis [6]) | Activity (Ammannia multiflora [7]) | Activity (Rotala indica [8]) | Activity (Rotala indica [9]) | Activity (Echinochloa oryzicola [10]) | Activity (Cyperus difformis [11]) | Activity (Elatine triandra [12]) | Activity (Lindernia procumbens [13]) | Activity (Elatine triandra [14]) | Activity (Ammannia multiflora [15]) | Activity (Pontederia vaginalis [16]) | Activity (Lindernia procumbens [17]) | Activity (Eleocharis acicularis [18]) | Activity [19] | Activity (Echinochloa oryzicola [20]) | further results
Cn1cc(C(=O)NOc2ccccc2Cl)c(OCc2cccc(C(F)(F)F)c2)n1 | Active | Active | Active | Non-toxic | Active | Active | Active | Active | Active | Active | Active | Active | Active | Active | Active | Active | Active | Active | Active | Active | Activity [21]: Active; Activity (Echinochloa oryzicola [22]): inactive; Activity (Eleocharis acicularis [23]): Active; Activity (Cyperus difformis [24]): Active; Activity (Lindernia procumbens [25]): Active; Activity (Oryza sativa [26]): Non-toxic; Activity (Pontederia vaginalis [27]): Active; Activity (Elatine triandra [28]): Active; Activity (Lindernia procumbens [29]): Active; Activity [30]: Active; Activity (Rotala indica [31]): Active; Activity (Cyperus difformis [32]): Active; Activity (Ammannia multiflora [33]): Active; Activity (Pontederia vaginalis [34]): Active; Activity (Ammannia multiflora [35]): Active; Activity [36]: inactive; Activity (Eleocharis acicularis [37]): Active; Activity (Echinochloa oryzicola [38]): Active
Cn1cc(C(=O)Nc2ccc(Cl)cc2Cl)c(OCc2cccc(C(F)(F)F)c2)n1 | Active | Active | Active | Non-toxic | Active | Active | Active | Active | Active | Active | Active | Active | Active | Active | Active | Active | Active | Active | Active | Active | Activity [21]: Active; Activity (Echinochloa oryzicola [22]): inactive; Activity (Eleocharis acicularis [23]): Active; Activity (Cyperus difformis [24]): Active; Activity (Lindernia procumbens [25]): Active; Activity (Oryza sativa [26]): Toxic; Activity (Pontederia vaginalis [27]): Active; Activity (Elatine triandra [28]): Active; Activity (Lindernia procumbens [29]): Active; Activity [30]: Active; Activity (Rotala indica [31]): Active; Activity (Cyperus difformis [32]): Active; Activity (Ammannia multiflora [33]): Active; Activity (Pontederia vaginalis [34]): Active; Activity (Ammannia multiflora [35]): Active; Activity [36]: inactive; Activity (Eleocharis acicularis [37]): Active; Activity (Echinochloa oryzicola [38]): Active
CCONC(=O)c1cn(C)nc1OCc1cccc(C(F)(F)F)c1 | Active | Active | Active | Non-toxic | Active | Active | Active | Active | Active | Active | Active | Active | Active | Active | Active | Active | Active | Active | Active | Active | Activity [21]: Active; Activity (Echinochloa oryzicola [22]): Active; Activity (Eleocharis acicularis [23]): Active; Activity (Cyperus difformis [24]): Active; Activity (Lindernia procumbens [25]): Active; Activity (Oryza sativa [26]): Non-toxic; Activity (Pontederia vaginalis [27]): Active; Activity (Elatine triandra [28]): Active; Activity (Lindernia procumbens [29]): Active; Activity [30]: Active; Activity (Rotala indica [31]): Active; Activity (Cyperus difformis [32]): Active; Activity (Ammannia multiflora [33]): Active; Activity (Pontederia vaginalis [34]): Active; Activity (Ammannia multiflora [35]): Active; Activity [36]: Active; Activity (Eleocharis acicularis [37]): Active; Activity (Echinochloa oryzicola [38]): Active
Cn1cc(C(=O)NOc2ccc(C(F)(F)F)cc2)c(OCc2cccc(C(F)(F)F)c2)n1 | Active | Active | Active | Non-toxic | Active | Active | Active | Active | Active | Active | Active | Active | Active | Active | Active | Active | Active | Active | Active | Active | Activity [21]: Active; Activity (Echinochloa oryzicola [22]): Active; Activity (Eleocharis acicularis [23]): Active; Activity (Cyperus difformis [24]): Active; Activity (Lindernia procumbens [25]): Active; Activity (Oryza sativa [26]): Non-toxic; Activity (Pontederia vaginalis [27]): Active; Activity (Elatine triandra [28]): Active; Activity (Lindernia procumbens [29]): Active; Activity [30]: Active; Activity (Rotala indica [31]): Active; Activity (Cyperus difformis [32]): Active; Activity (Ammannia multiflora [33]): Active; Activity (Pontederia vaginalis [34]): Active; Activity (Ammannia multiflora [35]): Active; Activity [36]: Active; Activity (Eleocharis acicularis [37]): Active; Activity (Echinochloa oryzicola [38]): Active
